15 compounds from US20260378560A1, “APPROACHES TO DESIGNING AND PERFORMING COMPRESSED BIOLOGICAL EXPERIMENTS AND SYSTEMS FOR IMPLEMENTING THE SAME” (EXVIVO LABS INC., priority 2023, published 2026) can be followed below.

Structures are written as SMILES.

Experiment [1] has as its system REH. The experiment can be described thus: Cell viability (CellTiter Glo), library of cancer drugs, individual or sample compression with randomized (alphabetical) pools, REH. The note with it: REH; for DRS: None (measured individually); for DRS from deconvolution: Samples, 7 Pick 3 randomized (alphabetical) sample pools. The class given is cell-based. The protocol: (§1) Total cell viability was measured for each sample using an ATP-based luminescence assay (i.e., CellTiter Glo). Each cancer drug was then screened at multiple concentrations ranging from one nM to ten μM in order to generate a dose-response curve and calculate a DRS for each cancer cell line.
(§2) Each cancer drug was cultured with target cells individually. At the end of the screen, samples were either analyzed individually or compressed into pools for analysis. The library was compressed alphabetically into ten cohorts, each of which contained seven cancer drugs present in three out of the seven pools, as shown in Table VII. Said another way, the screening platform 210 generated a “7 pick 3” compressed library by assigning the cancer drugs among different pools. […] The library was also compressed into ten cohorts with pools designed based on information known about each cancer drug, as shown in Table VIII. After cell viability measurement and DRS calculation, the DRS of each cancer drug in the samples generated based on the pools were deconvoluted and compared to the DRS for each cancer drug measured individually.
(§3) In SUM-based deconvolution, an assumption of additivity is used to quantify the individual effects of each perturbation on each target. Additivity implies that each perturbation effect on each target is positively contributing to the overall effect measured for that pool. This is an accurate assumption for certain experiments, such as when targets or samples are compressed. When targets are pooled—or when samples containing different targets are pooled—the effect of each perturbation on each individual target is diluted. In other words, each perturbation has an isolated effect on a target in culture, and the sum total of the isolated effects are measured when pooled. Therefore, SUM-based deconvolution breaks down the sum total measured for a pool and assigns estimated fractional effects to each compressed perturbation or target in the pool. The screening platform 210 used SUM-based deconvolution for all target and sample compression experiments described above.

The test system of experiment [2] is MOLT-4. The experiment can be described thus: Cell viability (CellTiter Glo), library of cancer drugs, individual or sample compression with randomized (alphabetical) pools, MOLT-4. The class given is cell-based. The note with it: for DRS: MOLT-4, None (measured individually); for DRS from deconvolution: MOLT-4, Samples, 7 Pick 3 randomized (alphabetical) sample pools. The protocol: as §1, §2, §3

Experiment [3] deals with REH. The experiment can be described thus: Cell viability (CellTiter Glo), compressed perturbation pools with informed pool design, MAX-based deconvolution, REH.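 As to all read-outs here: higher DRS means a larger drug effect.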 The settings on record: REH; for DRS: None (measured individually), informed pool design table; for DRS from MAX-based deconvolution: Samples, 7 Pick 3 informed perturbation pools. The protocol:
as §1, §2
(§4) In parallel to the exemplary sample compression screen covered in Table VII, perturbations were compressed into pools and then screened. The pools were designed using drug class as a feature with two compression rules (or simply “rules”). The first rule required that drugs from the same class be separated into different cohorts (i.e., mutually exclusive groups of pools). […] A benefit of compressing perturbations is the ability to measure additive, antagonistic, and synergistic effects between drugs in the same pool. However, these effects can negatively impact deconvolution of individual drug effects. Therefore, combinations of drugs for which evidence of clinical toxicity exists can be assigned to different pools in accordance with an informed pooling operation. As new preclinical or clinical evidence of toxic combinations becomes available, the rules implemented by the screening platform 210—and more specifically, its algorithm for compressing members of a library—can be updated accordingly.
(§5) In MAX-based deconvolution, an assumption of neutrality between the compressed perturbations is made. In other words, the perturbation with the largest effect is assumed to be masking the effects, if any, of the other perturbations in the pool. For SUM- and MAX-based deconvolution, qualitative deconvolution is first performed to rank the perturbations in each pool based on size of expected effect. Qualitative deconvolution, as described above, ranks the perturbations in a pool from largest effect size to smallest effect size. The ranking is based on the overlap of each perturbation's unique subset of pools with the highest and lowest measured pools. The perturbation with the largest effect is expected to be present in the pools with the highest measured signal or corresponding metric (e.g., DRS), while the perturbation with the smallest effect is expected to be present in the pools with the lowest measured signal or corresponding metric (e.g., DRS).
(§6) For MAX-based deconvolution, the highest ranked perturbation in the rank order is first assigned an effect size based on the pool with the lowest measured signal or corresponding metric (e.g., DRS) that it is present in. Said another way, the screening platform 210 can identify the highest ranked perturbation in the rank order and then assign an effect size based on the measured signal or corresponding metric (e.g., DRS) of the “weakest” pool in which the highest ranked perturbation is included. The screening platform 210 can repeat this step for the next highest ranked perturbation, and so on until the measurements for each pool have been assigned to one of the perturbations. The effects for the remaining perturbations can be assigned a value of zero, since it is assumed that their effect is masked by the perturbation with the largest effect in each pool.

The subject of experiment [4] is MOLT-4. Description: Cell viability (CellTiter Glo), compressed perturbation pools with informed pool design, MAX-based deconvolution, MOLT-4.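 As to all read-outs here: higher DRS means a larger drug effect.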 The note with it: for DRS: MOLT-4, None (measured individually), informed pool design table; for DRS from MAX-based deconvolution: MOLT-4, Samples, 7 Pick 3 informed perturbation pools. The protocol: as §1, §2, §4, §5, §6

`CCc1cc2c(cc1N1CCC(N3CCOCC3)CC1)C(C)(C)c1[nH]c3cc(C#N)ccc3c1C2=O` [Alectinib]: the DRS in the experiment on REH [1] is on record as 0.20; in the experiment on MOLT-4 [2], 0.00; in the experiment with REH [3], 0.00; in the experiment with MOLT-4 [4] it was 0.70. Further, the DRS from deconvolution in the experiment on REH [1] and with MOLT-4 [2] was 0.00 throughout. The “DRS from MAX-based deconvolution” value with REH [3] is given as 0.00; with MOLT-4 [4] it was 1.19.
As to `CCc1nc(C(N)=O)c(Nc2ccc(N3CCC(N4CCN(C)CC4)CC3)c(OC)c2)nc1NC1CCOCC1` [Gilteritinib], the DRS in the experiment with REH [1] was 0.00; in the experiment on MOLT-4 [2] it was 0.00; in the experiment on REH [3], 0.20; in the experiment with MOLT-4 [4], 0.00. Moreover, the DRS from deconvolution in the experiment with REH [1] and in the experiment with MOLT-4 [2] was 0.00 throughout. The “DRS from MAX-based deconvolution” value with REH [3] and in the experiment on MOLT-4 [4] was 0.00 each time.
Consider `O=C(c1ccc(F)c(F)c1Nc1ccc(I)cc1F)N1CC(O)([C@@H]2CCCCN2)C1` [Cobimetinib], for which the DRS was 0.00 with REH [1], 0.00 in the experiment with MOLT-4 [2], 0.00 in the experiment with REH [3] and 1.60 in the experiment with MOLT-4 [4]. Further, the DRS from deconvolution in the experiment on REH [1] and in the experiment on MOLT-4 [2] was 0.00 throughout. Also, the “DRS from MAX-based deconvolution” value came to 0.00 with REH [3] and 1.60 in the experiment on MOLT-4 [4].
With `Cn1cnc2c(F)c(Nc3ccc(Br)cc3Cl)c(C(=O)NOCCO)cc21` [Selumetinib], the DRS came out at 0.00 in the experiment with REH [1], 0.40 in the experiment on MOLT-4 [2], 3.91 in the experiment on REH [3] and 2.74 with MOLT-4 [4]. The DRS from deconvolution in the experiment with REH [1] and in the experiment with MOLT-4 [2] was 0.00 each time. Moreover, the “DRS from MAX-based deconvolution” value in the experiment on REH [3] was found to be 4.43; with MOLT-4 [4], 3.41.
Regarding `CC#CC(=O)N1CCC[C@H]1c1nc(-c2ccc(C(=O)Nc3ccccn3)cc2)c2c(N)nccn12` [Acalabrutinib], the DRS in the experiment with REH [1], in the experiment with MOLT-4 [2], in the experiment on REH [3] and in the experiment on MOLT-4 [4] was 0.00 in each case. The DRS from deconvolution in the experiment with REH [1] and in the experiment on MOLT-4 [2] was 0.00 throughout. Also, the “DRS from MAX-based deconvolution” value with REH [3] and in the experiment on MOLT-4 [4] was 0.00 each time.
On to `CS(=O)(=O)CCNCc1ccc(-c2ccc3ncnc(Nc4ccc(OCc5cccc(F)c5)c(Cl)c4)c3c2)o1` [Lapatinib], for which the DRS in the experiment with REH [1] is on record as 0.74; in the experiment with MOLT-4 [2] it was 0.74; with REH [3], 6.99; in the experiment on MOLT-4 [4], 5.79. Also, the DRS from deconvolution is recorded as 0.81 in the experiment on REH [1] and 0.71 in the experiment on MOLT-4 [2]. Further, the “DRS from MAX-based deconvolution” value in the experiment on REH [3] worked out at 8.02.
Regarding `FC(F)(F)c1ccc(CNc2ccc(Cc3c[nH]c4ncc(Cl)cc34)cn2)cn1` [Pexidartinib], the DRS in the experiment on REH [1] is recorded as 2.30; in the experiment with MOLT-4 [2], 0.00; in the experiment with REH [3], 1.00; with MOLT-4 [4], 7.00. Further, the DRS from deconvolution in the experiment with REH [1] is recorded as 2.11; in the experiment with MOLT-4 [2] it was 0.00. For the same compound, the “DRS from MAX-based deconvolution” value is 0.00 in the experiment on REH [3] and 9.12 with MOLT-4 [4].
As for `Cc1c(C(=O)Nc2ccc(N3C[C@@H](C)O[C@@H](C)C3)nc2)cccc1-c1ccc(OC(F)(F)F)cc1` [Sonidegib], the DRS in the experiment with REH [1] is 2.40; with MOLT-4 [2], 2.50; in the experiment on REH [3] it was 0.79; in the experiment on MOLT-4 [4] it was 1.79. The DRS from deconvolution was 2.42 in the experiment on REH [1] and 2.47 in the experiment with MOLT-4 [2]. In addition, the “DRS from MAX-based deconvolution” value in the experiment with REH [3] was found to be 3.57; in the experiment on MOLT-4 [4] it was 0.00.
`C=CC(=O)N1CCC[C@@H](n2nc(-c3ccc(Oc4ccccc4)cc3)c3c(N)ncnc32)C1` [Ibrutinib]: the DRS was found to be 0.95 in the experiment with REH [1], 2.35 with MOLT-4 [2], 0.95 in the experiment with REH [3] and 2.35 in the experiment with MOLT-4 [4]. In addition, the DRS from deconvolution is given as 0.96 in the experiment on REH [1] and 2.50 with MOLT-4 [2]. Also, the “DRS from MAX-based deconvolution” value is reported as 1.56 in the experiment on REH [3] and 3.17 in the experiment with MOLT-4 [4].
For `CNC(=O)c1cc(Oc2ccc(NC(=O)Nc3ccc(Cl)c(C(F)(F)F)c3)cc2)ccn1` [Sorafenib], the DRS with REH [1] was found to be 0.53; in the experiment with MOLT-4 [2], 0.33; with REH [3], 1.78; in the experiment on MOLT-4 [4], 0.88. For the same compound, the DRS from deconvolution with REH [1] is 0.44; in the experiment with MOLT-4 [2], 0.25. Also, the “DRS from MAX-based deconvolution” value in the experiment with REH [3] and in the experiment with MOLT-4 [4] was 0.00 each time.
With `CCN(CC)CCNC(=O)c1c(C)[nH]c(/C=C2\C(=O)Nc3ccc(F)cc32)c1C` [Sunitinib], the DRS was found to be 0.06 with REH [1], 0.56 with MOLT-4 [2], 3.10 in the experiment on REH [3] and 2.60 in the experiment with MOLT-4 [4]. Moreover, the DRS from deconvolution with REH [1] worked out at 0.00; in the experiment on MOLT-4 [2], 0.50. For the same compound, the “DRS from MAX-based deconvolution” value in the experiment with REH [3] and in the experiment with MOLT-4 [4] was 0.00 throughout.
As for `CNC(=O)c1ccc(N2C(=S)N(c3ccc(C#N)c(C(F)(F)F)c3)C(=O)C2(C)C)cc1F` [Enzalutamide], the DRS in the experiment with REH [1] amounted to 0.00; in the experiment with MOLT-4 [2], 0.00; with REH [3] it was 27.70; with MOLT-4 [4] it was 25.00. Further, the DRS from deconvolution in the experiment with REH [1] and in the experiment on MOLT-4 [2] was 0.00 in each case. The “DRS from MAX-based deconvolution” value came to 31.61 with REH [3] and 28.24 with MOLT-4 [4].
Consider `Cc1cn(-c2cc(NC(=O)c3ccc(C)c(Nc4nccc(-c5cccnc5)n4)c3)cc(C(F)(F)F)c2)cn1` [Nilotinib], for which the DRS in the experiment on REH [1] is listed as 2.85; in the experiment with MOLT-4 [2] it was 3.95; in the experiment on REH [3], 0.00; in the experiment with MOLT-4 [4], 0.00. In addition, the DRS from deconvolution in the experiment on REH [1] was 2.97; with MOLT-4 [2], 3.88. Moreover, the “DRS from MAX-based deconvolution” value in the experiment with REH [3] and in the experiment on MOLT-4 [4] was 0.00 each time.
In the case of `O=C(c1cc(Cc2n[nH]c(=O)c3ccccc23)ccc1F)N1CCN(C(=O)C2CC2)CC1` [Olaparib], the DRS is on record as 2.58 with REH [1], 5.28 in the experiment on MOLT-4 [2], 1.84 in the experiment with REH [3] and 0.24 in the experiment on MOLT-4 [4]. The DRS from deconvolution in the experiment with REH [1] is 2.61; in the experiment on MOLT-4 [2] it was 5.41. Moreover, the “DRS from MAX-based deconvolution” value in the experiment on REH [3] and in the experiment with MOLT-4 [4] was 0.00 in each case.
In the case of `CN1CC[C@@H](NC(=O)Nc2ccc(C#N)cc2)C[C@@H]1c1nc2ccccc2[nH]1` [Glasdegib], the DRS in the experiment with REH [1] is on record as 1.63; in the experiment on MOLT-4 [2], 0.03; in the experiment with REH [3] it was 0.00; in the experiment on MOLT-4 [4], 0.00. Besides, the results for the DRS from deconvolution with REH [1] and in the experiment with MOLT-4 [2] were 1.45 and 0.00, respectively. The “DRS from MAX-based deconvolution” value in the experiment with REH [3] and in the experiment with MOLT-4 [4] was 0.00 throughout.
